Patent US7750003B2, “Compounds-943” (AstraZeneca AB, priority 2006, dated 2010)

Biological target: recombinant mTOR (FLAG-tagged, residues 1362-2549) (Homo sapiens, UniProt P42345)
Assay: In vitro mTOR kinase assay (Test (a), AlphaScreen)
Type: biochemical
Settings: ATP 20 μM, read-out: Test (a): IC50 versus mTOR kinase
Summary of the method: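 AlphaScreen read-out: a phospho-T389 p70 S6K antibody on acceptor beads captures the phosphorylated biotin-peptide on donor beads, with signal loss indicating inhibition.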

Chain of recombinant mTOR (FLAG-tagged, residues 1362-2549) (P42345 1362-2549): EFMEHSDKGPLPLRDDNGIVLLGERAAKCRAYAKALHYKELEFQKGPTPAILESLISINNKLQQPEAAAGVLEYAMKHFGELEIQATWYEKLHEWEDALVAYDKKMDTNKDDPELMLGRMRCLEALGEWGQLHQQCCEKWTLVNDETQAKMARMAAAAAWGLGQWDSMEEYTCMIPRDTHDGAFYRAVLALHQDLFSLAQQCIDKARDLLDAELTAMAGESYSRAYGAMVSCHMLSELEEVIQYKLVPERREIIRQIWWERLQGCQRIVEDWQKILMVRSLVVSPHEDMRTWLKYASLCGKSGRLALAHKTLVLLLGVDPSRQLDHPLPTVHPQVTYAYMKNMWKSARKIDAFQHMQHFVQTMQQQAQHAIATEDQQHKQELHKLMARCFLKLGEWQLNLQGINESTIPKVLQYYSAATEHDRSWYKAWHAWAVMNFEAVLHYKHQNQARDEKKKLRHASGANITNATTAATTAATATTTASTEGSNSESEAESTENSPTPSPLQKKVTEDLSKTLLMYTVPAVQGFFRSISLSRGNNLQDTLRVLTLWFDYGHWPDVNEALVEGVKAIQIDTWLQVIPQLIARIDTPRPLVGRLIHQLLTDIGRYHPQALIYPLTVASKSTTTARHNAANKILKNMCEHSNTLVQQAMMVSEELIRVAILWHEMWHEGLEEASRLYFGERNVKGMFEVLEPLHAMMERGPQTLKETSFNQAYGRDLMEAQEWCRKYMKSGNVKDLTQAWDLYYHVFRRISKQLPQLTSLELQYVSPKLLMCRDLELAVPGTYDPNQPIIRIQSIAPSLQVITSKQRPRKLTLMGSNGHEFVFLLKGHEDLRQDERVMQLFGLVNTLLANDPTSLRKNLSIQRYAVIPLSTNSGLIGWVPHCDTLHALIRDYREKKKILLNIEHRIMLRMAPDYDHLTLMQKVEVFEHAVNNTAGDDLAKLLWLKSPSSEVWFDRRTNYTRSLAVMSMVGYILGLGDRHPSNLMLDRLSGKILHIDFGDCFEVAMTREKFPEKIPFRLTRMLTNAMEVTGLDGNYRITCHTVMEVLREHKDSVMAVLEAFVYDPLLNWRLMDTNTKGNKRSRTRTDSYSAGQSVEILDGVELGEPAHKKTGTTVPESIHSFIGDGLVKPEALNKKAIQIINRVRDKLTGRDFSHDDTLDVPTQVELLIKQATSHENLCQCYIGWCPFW

IC50 [nM] | SMILES
310 | C[C@H]1COCCN1c1cc(CS(C)(=O)=O)nc(-c2ccc(NC(=O)NCc3cnn(C)c3)cc2)n1 [Example 24g, 1-[4-[4-[(3S)-3-methylmorpholin-4-yl]-6-(methylsulfonylmethyl)pyrimidin-2-yl]phenyl]-3-[(1-methylpyrazol-4-yl)methyl]urea]
330 | C[C@H]1COCCN1c1cc(CS(C)(=O)=O)nc(-c2ccc(NC(=O)NCc3cccc(N(C)C)c3)cc2)n1 [Example 24i, 3-[(3-dimethylaminophenyl)methyl]-1-[4-[4-[(3S)-3-methylmorpholin-4-yl]-6-(methylsulfonylmethyl)pyrimidin-2-yl]phenyl]urea]
41 | CS(=O)(=O)Cc1cc(N2CCOCC2)nc(-c2ccc(NC(=O)N3CCOCC3)cc2)n1 [Example 45g, N-[4-[4-(methylsulfonylmethyl)-6-morpholin-4-yl-pyrimidin-2-yl]phenyl]morpholine-4-carboxamide]
40 | COCCNCc1cc(N2CCOC[C@@H]2C)nc(-c2ccc(NC(=O)NC3CC3)cc2)n1 [Example 49c, 3-cyclopropyl-1-[4-[4-[(2-methoxyethylamino)methyl]-6-[(3S)-3-methylmorpholin-4-yl]pyrimidin-2-yl]phenyl]urea]
94 | CC(C)S(=O)(=O)Cc1cc(N2CCOC[C@@H]2C)nc(-c2ccc(NC(=O)NC3CC3)cc2)n1 [Example 20r, 3-cyclopropyl-1-[4-[4-[(3S)-3-methylmorpholin-4-yl]-6-(propan-2-ylsulfonylmethyl)pyrimidin-2-yl]phenyl]urea]
570 | C[C@H]1COCCN1c1cc(CN(C)C2CC2)nc(-c2ccc(NC(=O)NCc3cnn(C)c3)cc2)n1 [Example 52b, 1-[4-[4-[(cyclopropyl-methyl-amino)methyl]-6-[(3S)-3-methylmorpholin-4-yl]pyrimidin-2-yl]phenyl]-3-[(1-methylpyrazol-4-yl)methyl]urea]
97 | C[C@H]1COCCN1c1cc(CS(C)(=O)=O)nc(-c2cnc(NC(=O)NC3CC3)s2)n1 [Example 46i, 3-cyclopropyl-1-[5-[4-[(3S)-3-methylmorpholin-4-yl]-6-(methylsulfonylmethyl)pyrimidin-2-yl]-1,3-thiazol-2-yl]urea]
630 | CS(=O)(=O)Cc1cc(N2CCOCC2)nc(-c2ccc(NC(=O)N3CCCCC3)cc2)n1 [Example 45a, N-[4-[4-(methylsulfonylmethyl)-6-morpholin-4-yl-pyrimidin-2-yl]phenyl]piperidine-1-carboxamide]
74 | CCNC(=O)Nc1ccc(-c2nc(CS(=O)(=O)C(C)C)cc(N3CCOCC3)n2)cc1 [Example 20l, 1-ethyl-3-[4-[4-morpholin-4-yl-6-(propan-2-ylsulfonylmethyl)pyrimidin-2-yl]phenyl]urea]
4.5 | C[C@H]1COCCN1c1cc(CS(C)(=O)=O)nc(-c2ccc(NC(=O)Nc3cc[nH]c(=O)c3)cc2)n1 [Example 22g, 1-[4-[4-[(3S)-3-methylmorpholin-4-yl]-6-(methylsulfonylmethyl)pyrimidin-2-yl]phenyl]-3-(2-oxo-1H-pyridin-4-yl)urea]
4400 | COc1ccc(NC(=O)Nc2ccn(-c3nc(CS(C)(=O)=O)cc(N4CCOC[C@@H]4C)n3)n2)cc1 [Example 25a, 3-(4-methoxyphenyl)-1-[1-[4-[(3S)-3-methylmorpholin-4-yl]-6-(methylsulfonylmethyl)pyrimidin-2-yl]pyrazol-3-yl]urea]
1900 | CCCCCNC(=O)Nc1ccc(-c2nc(CS(C)(=O)=O)cc(N3CCOCC3)n2)cc1 [Example 7j, 3-[4-[4-(methylsulfonylmethyl)-6-morpholin-4-yl-pyrimidin-2-yl]phenyl]-1-pentyl-urea]
32 | CCNC(=O)Nc1ccc(-c2nc(CS(=O)(=O)c3ccccn3)cc(N3CCOC[C@@H]3C)n2)cc1 [Example 71, 3-Ethyl-1-[4-[4-[(3S)-3-methylmorpholin-4-yl]-6-(pyridin-2-ylsulfonylmethyl)pyrimidin-2-yl]phenyl]urea]
300 | CC(C)CNC(=O)Nc1ccc(-c2nc(CS(C)(=O)=O)cc(N3CCOC[C@@H]3C)n2)cc1 [Example 8f, 1-[4-[4-[(3S)-3-Methylmorpholin-4-yl]-6-(methylsulfonylmethyl)pyrimidin-2-yl]phenyl]-3-(2-methylpropyl)urea]
250 | CNC(=O)Nc1ccc(-c2nc(CS(=O)(=O)C3CCCCC3)cc(N3CCOC[C@@H]3C)n2)cc1 [Example 19, 1-[4-[4-(Cyclohexylsulfonylmethyl)-6-[(3S)-3-methylmorpholin-4-yl]pyrimidin-2-yl]phenyl]-3-methyl-urea]
2400 | C[C@H]1COCCN1c1cc(C(C)(C)S(=O)(=O)C2CC2)nc(-c2ccc(NC(=O)NC3CC3)cc2)n1 [Example 56, 3-Cyclopropyl-1-[4-[4-(2-cyclopropylsulfonylpropan-2-yl)-6-[(3S)-3-methylmorpholin-4-yl]pyrimidin-2-yl]phenyl]urea]
7000 | CS(=O)(=O)Cc1cc(N2CCOCC2)nc(-c2ccc(NC(=O)NC3CCCCC3)cc2)n1 [Example 7l, 3-cyclohexyl-1-[4-[4-(methylsulfonylmethyl)-6-morpholin-4-yl-pyrimidin-2-yl]phenyl]urea]

IC50 [nM] | SMILES
140 | CC(=O)NCCS(=O)(=O)Cc1cc(N2CCOC[C@@H]2C)nc(-c2ccc(NC(=O)Nc3ccccc3)cc2)n1 [Example 11, N-[2-[[6-[(3S)-3-methylmorpholin-4-yl]-2-[4-(phenylcarbamoylamino)phenyl]pyrimidin-4-yl]methylsulfonyl]ethyl]acetamide]
170 | COCCNC(=O)Nc1ccc(-c2nc(CS(C)(=O)=O)cc(N3CCOC[C@@H]3C)n2)cc1 [Example 4d, 1-(2-methoxyethyl)-3-[4-[4-[(3S)-3-methylmorpholin-4-yl]-6-(methylsulfonylmethyl)pyrimidin-2-yl]phenyl]urea]
140 | CS(=O)(=O)Cc1cc(N2CCOCC2)nc(-c2ccc(NC(=O)N3CCC(O)CC3)cc2)n1 [Example 45h, 4-hydroxy-N-[4-[4-(methylsulfonylmethyl)-6-morpholin-4-yl-pyrimidin-2-yl]phenyl]piperidine-1-carboxamide]
1400 | CCNC(=O)Nc1ccc(-c2nc(CS(C)(=O)=O)cc(N3CCOC[C@@H]3C)n2)cc1Cl [Example 8i, 1-[2-Chloro-4-[4-[(3S)-3-methylmorpholin-4-yl]-6-(methylsulfonylmethyl)pyrimidin-2-yl]phenyl]-3-ethyl-urea]
560 | C[C@H]1COCCN1c1cc(CS(=O)(=O)C2CCNC2=O)nc(-c2ccc(NC(=O)Nc3ccccc3)cc2)n1 (stereo partly drawn) [Example 29, 1-[4-[4-[(3S)-3-Methylmorpholin-4-yl]-6-[(2-oxopyrrolidin-3-yl)sulfonylmethyl]pyrimidin-2-yl]phenyl]-3-phenyl-urea]
510 | C[C@H]1COCCN1c1cc(C(C)(C)S(C)(=O)=O)nc(-c2ccc(NC(=O)NC3CCN(C)CC3)cc2)n1 [Example 21j, 1-[4-[4-[(3S)-3-methylmorpholin-4-yl]-6-(2-methylsulfonylpropan-2-yl)pyrimidin-2-yl]phenyl]-3-(1-methyl-4-piperidyl)urea]
51 | C[C@H]1COCCN1c1cc(C(C)(C)S(C)(=O)=O)nc(-c2ccc(NC(=O)NCCO)cc2)n1 [Example 24bj, 3-(2-hydroxyethyl)-1-[4-[4-[(3S)-3-methylmorpholin-4-yl]-6-(2-methylsulfonylpropan-2-yl)pyrimidin-2-yl]phenyl]urea]
420 | CS(=O)(=O)Cc1cc(N2CCOCC2)nc(-c2ccc(NC(=O)NC3CCOCC3)cc2)n1 [Example 45u, 1-[4-[4-(methylsulfonylmethyl)-6-morpholin-4-yl-pyrimidin-2-yl]phenyl]-3-(oxan-4-yl)urea]
1700 | C[C@H]1COCCN1c1cc(CS(C)(=O)=O)nc(-c2ccc(NC(=O)N(C)C)c(F)c2)n1 [Example 2f, 3-[2-fluoro-4-[4-[(3S)-3-methylmorpholin-4-yl]-6-(methylsulfonylmethyl)pyrimidin-2-yl]phenyl]-1,1-dimethyl-urea]
310 | C[C@H]1COCCN1c1cc(CS(C)(=O)=O)nc(-c2ccc(NC(=O)N3CCC3)cc2)n1 [Example 2, N-[4-[4-[(3S)-3-methylmorpholin-4-yl]-6-(methylsulfonylmethyl)pyrimidin-2-yl]phenyl]azetidine-1-carboxamide]
60 | C[C@H]1COCCN1c1cc(CS(C)(=O)=O)nc(-c2ccc(NC(=O)Nc3ncccn3)cc2)n1 [Example 22a, 1-[4-[4-[(3S)-3-methylmorpholin-4-yl]-6-(methylsulfonylmethyl)pyrimidin-2-yl]phenyl]-3-pyrimidin-2-yl-urea]
62 | COc1ccc(NC(=O)Nc2ccc(-c3nc(CS(C)(=O)=O)cc(N4CCOC[C@@H]4C)n3)cc2)cc1 [Example 1a, 1-(4-methoxyphenyl)-3-[4-[4-[(3S)-3-methylmorpholin-4-yl]-6-(methylsulfonylmethyl)pyrimidin-2-yl]phenyl]urea]
270 | COCCNC(=O)Nc1ccc(-c2nc(CS(=O)(=O)C(C)C)cc(N3CCOC[C@@H]3C)n2)cc1 [Example 20u, 3-(2-methoxyethyl)-1-[4-[4-[(3S)-3-methylmorpholin-4-yl]-6-(propan-2-ylsulfonylmethyl)pyrimidin-2-yl]phenyl]urea]
1100 | CCN(C)C(=O)Nc1ccc(-c2nc(CS(C)(=O)=O)cc(N3CCOCC3)n2)cc1 [Example 45l, 1-ethyl-1-methyl-3-[4-[4-(methylsulfonylmethyl)-6-morpholin-4-yl-pyrimidin-2-yl]phenyl]urea]
43 | C[C@H]1COCCN1c1cc(CS(C)(=O)=O)nc(-c2ccc(NC(=O)Nc3ccc(F)cc3)nc2)n1 [Example 1j, 3-(4-fluorophenyl)-1-[5-[4-[(3S)-3-methylmorpholin-4-yl]-6-(methylsulfonylmethyl)pyrimidin-2-yl]pyridin-2-yl]urea]
1200 | CS(=O)(=O)Cc1cc(N2CCOCC2)nc(-c2ccc(NC(=O)N3CCNC(=O)C3)cc2)n1 [Example 45v, [4-[4-(methylsulfonylmethyl)-6-morpholin-4-yl-pyrimidin-2-yl]phenyl]-3-oxo-piperazine-1-carboxamide]
